# Laboratory results as given in ChEMBL document CHEMBL3885861, “Open TG-GATES”.
# Organism: Rattus norvegicus
# Assay: Open TG-GATES - Regimen: Daily Repeat
# Type: toxicity, organism-based, Sprague-Dawley
# Parameters: regimen Daily Repeat, gender Male, age 6 weeks
# Settings: in vivo, po, 300 mg/kg, route gavage, dose level Middle; for APTT / Bas / Eos / Fbg / Hb / Ht / Lym / MCH / MCHC / MCV / Mono / Neu / PT / Plat / RBC / Ret / WBC: tissue Blood; for KIDNEY_L / KIDNEY_R / KIDNEY_TOTAL: tissue Kidney; for LIVER: tissue Liver; for A/G / ALP / ALT / AST / BUN / CRE / Ca / Cl / DBIL / GLC / IP / K / LDH / Na / PL / RALB / TBIL / TC / TG / TP / gamma-GTP: tissue Plasma
smiles,measurement,setting,value
CCN1CCCC1CNC(=O)c1cc(S(N)(=O)=O)ccc1OC (configuration not stated) [SULPIRIDE],TERMINAL_BW,"72 h, time 3 day",234.7 g
same,APTT,"72 h, time 3 day",16.7 s
same,Bas,"72 h, time 3 day",0%
same,Eos,"72 h, time 3 day",1%
same,Fbg,"72 h, time 3 day",278.2 mg/dL
same,Hb,"72 h, time 3 day",13.4 g/dL
same,Ht,"72 h, time 3 day",40.9%
same,Lym,"72 h, time 3 day",78.8%
same,MCH,"72 h, time 3 day",20.6 pg
same,MCHC,"72 h, time 3 day",32.8%
same,MCV,"72 h, time 3 day",62.7 fL
same,Mono,"72 h, time 3 day",3.4%
same,Neu,"72 h, time 3 day",16.2%
same,PT,"72 h, time 3 day",13.1 s
same,Plat,"72 h, time 3 day",118.8 x10_4/uL
same,RBC,"72 h, time 3 day",653.4 x10_4/ul
same,Ret,"72 h, time 3 day",6.5%
same,WBC,"72 h, time 3 day",94.6 x10_2/uL
same,KIDNEY_L,"72 h, time 3 day",1 g
same,KIDNEY_R,"72 h, time 3 day",1 g
same,KIDNEY_TOTAL,"72 h, time 3 day",2.1 g
same,LIVER,"72 h, time 3 day",11.7 g
same,A/G,"72 h, time 3 day",0.9
same,ALP,"72 h, time 3 day",1582.2 IU/L
same,ALT,"72 h, time 3 day",44 IU/L
same,AST,"72 h, time 3 day",65.8 IU/L
same,BUN,"72 h, time 3 day",14.6 mg/dL
same,CRE,"72 h, time 3 day",0.2 mg/dL
same,Ca,"72 h, time 3 day",11.1 mg/dL
same,Cl,"72 h, time 3 day",103.2 meq/L
same,DBIL,"72 h, time 3 day",0.01 mg/dL
same,GLC,"72 h, time 3 day",182 mg/dL
same,IP,"72 h, time 3 day",8 mg/dL
same,K,"72 h, time 3 day",4.4 meq/L
same,LDH,"72 h, time 3 day",78.2 IU/L
same,Na,"72 h, time 3 day",139.6 meq/L
same,PL,"72 h, time 3 day",147.8 mg/dL
same,RALB,"72 h, time 3 day",2.7 g/dL
same,TBIL,"72 h, time 3 day",0.056 mg/dL
same,TC,"72 h, time 3 day",78.4 mg/dL
same,TG,"72 h, time 3 day",92.8 mg/dL
same,TP,"72 h, time 3 day",5.7 g/dL
same,gamma-GTP,"72 h, time 3 day",1 IU/L
same,TERMINAL_BW,"[…], time 7 day",265.3 g
same,TERMINAL_BW,"[…], time 14 day",329.3 g
same,TERMINAL_BW,"[…], time 28 day",375.2 g
same,APTT,"[…], time 7 day",16.9 s
same,Bas,"[…], time 7 day",0%
same,Eos,"[…], time 7 day",1%
same,Fbg,"[…], time 7 day",297.2 mg/dL
same,Hb,"[…], time 7 day",13.8 g/dL
same,Ht,"[…], time 7 day",41.8%
same,Lym,"[…], time 7 day",81.8%
same,MCH,"[…], time 7 day",20 pg
same,MCHC,"[…], time 7 day",33%
same,MCV,"[…], time 7 day",60.4 fL
same,Mono,"[…], time 7 day",2.2%
same,Neu,"[…], time 7 day",14.4%
same,PT,"[…], time 7 day",13.1 s
same,Plat,"[…], time 7 day",123.9 x10_4/uL
same,RBC,"[…], time 7 day",692.4 x10_4/ul
same,Ret,"[…], time 7 day",4.9%
same,WBC,"[…], time 7 day",113 x10_2/uL
same,APTT,"[…], time 14 day",16.8 s
same,Bas,"[…], time 14 day",0.2%
same,Eos,"[…], time 14 day",1%
same,Fbg,"[…], time 14 day",295.2 mg/dL
same,Hb,"[…], time 14 day",14.7 g/dL
same,Ht,"[…], time 14 day",44.1%
same,Lym,"[…], time 14 day",78.4%
same,MCH,"[…], time 14 day",20 pg
same,MCHC,"[…], time 14 day",33.4%
same,MCV,"[…], time 14 day",60 fL
same,Mono,"[…], time 14 day",2.2%
same,Neu,"[…], time 14 day",17.2%
same,PT,"[…], time 14 day",13.2 s
same,Plat,"[…], time 14 day",121.1 x10_4/uL
same,RBC,"[…], time 14 day",736 x10_4/ul
same,Ret,"[…], time 14 day",4.1%
same,WBC,"[…], time 14 day",102.3 x10_2/uL
same,APTT,"[…], time 28 day",17.4 s
same,Bas,"[…], time 28 day",0.2%
same,Eos,"[…], time 28 day",1.2%
same,Fbg,"[…], time 28 day",265 mg/dL
same,Hb,"[…], time 28 day",15.8 g/dL
same,Ht,"[…], time 28 day",45.8%
same,Lym,"[…], time 28 day",76.4%
same,MCH,"[…], time 28 day",19.4 pg
same,MCHC,"[…], time 28 day",34.5%
same,MCV,"[…], time 28 day",56.1 fL
same,Mono,"[…], time 28 day",1.8%
same,Neu,"[…], time 28 day",20%
same,PT,"[…], time 28 day",13.4 s
same,Plat,"[…], time 28 day",114.4 x10_4/uL
same,RBC,"[…], time 28 day",817 x10_4/ul
same,Ret,"[…], time 28 day",2.1%
same,WBC,"[…], time 28 day",109.3 x10_2/uL
same,KIDNEY_L,"[…], time 7 day",1.1 g
same,KIDNEY_R,"[…], time 7 day",1.1 g
same,KIDNEY_TOTAL,"[…], time 7 day",2.1 g
same,KIDNEY_L,"[…], time 14 day",1.3 g
same,KIDNEY_R,"[…], time 14 day",1.2 g
same,KIDNEY_TOTAL,"[…], time 14 day",2.5 g
same,KIDNEY_L,"[…], time 28 day",1.3 g
same,KIDNEY_R,"[…], time 28 day",1.4 g
same,KIDNEY_TOTAL,"[…], time 28 day",2.7 g
same,LIVER,"[…], time 7 day",12.5 g
same,LIVER,"[…], time 14 day",14.2 g
same,LIVER,"[…], time 28 day",14 g
same,A/G,"[…], time 7 day",0.8
same,ALP,"[…], time 7 day",1497.6 IU/L
same,ALT,"[…], time 7 day",46.8 IU/L
same,AST,"[…], time 7 day",65.8 IU/L
same,BUN,"[…], time 7 day",17 mg/dL
same,CRE,"[…], time 7 day",0.2 mg/dL
same,Ca,"[…], time 7 day",11 mg/dL
same,Cl,"[…], time 7 day",104.2 meq/L
same,DBIL,"[…], time 7 day",0.01 mg/dL
same,GLC,"[…], time 7 day",182.2 mg/dL
same,IP,"[…], time 7 day",8.1 mg/dL
same,K,"[…], time 7 day",4.2 meq/L
same,LDH,"[…], time 7 day",54.4 IU/L
same,Na,"[…], time 7 day",141.6 meq/L
same,PL,"[…], time 7 day",143 mg/dL
same,RALB,"[…], time 7 day",2.6 g/dL
same,TBIL,"[…], time 7 day",0.052 mg/dL
same,TC,"[…], time 7 day",70.4 mg/dL
same,TG,"[…], time 7 day",114.4 mg/dL
same,TP,"[…], time 7 day",5.8 g/dL
same,gamma-GTP,"[…], time 7 day",1 IU/L
same,A/G,"[…], time 14 day",0.9
same,ALP,"[…], time 14 day",1350 IU/L
same,ALT,"[…], time 14 day",37.4 IU/L
same,AST,"[…], time 14 day",62.8 IU/L
same,BUN,"[…], time 14 day",16 mg/dL
same,CRE,"[…], time 14 day",0.2 mg/dL
same,Ca,"[…], time 14 day",11.1 mg/dL
same,Cl,"[…], time 14 day",103 meq/L
same,DBIL,"[…], time 14 day",0.014 mg/dL
same,GLC,"[…], time 14 day",188.8 mg/dL
same,IP,"[…], time 14 day",7.8 mg/dL
same,K,"[…], time 14 day",3.9 meq/L
same,LDH,"[…], time 14 day",50.6 IU/L
same,Na,"[…], time 14 day",140.6 meq/L
same,PL,"[…], time 14 day",145.2 mg/dL
same,RALB,"[…], time 14 day",2.7 g/dL
same,TBIL,"[…], time 14 day",0.052 mg/dL
same,TC,"[…], time 14 day",71.8 mg/dL
same,TG,"[…], time 14 day",109 mg/dL
same,TP,"[…], time 14 day",5.8 g/dL
same,gamma-GTP,"[…], time 14 day",1 IU/L
same,A/G,"[…], time 28 day",0.8
same,ALP,"[…], time 28 day",1073.6 IU/L
same,ALT,"[…], time 28 day",43.8 IU/L
same,AST,"[…], time 28 day",65.2 IU/L
same,BUN,"[…], time 28 day",17 mg/dL
same,CRE,"[…], time 28 day",0.2 mg/dL
same,Ca,"[…], time 28 day",10.6 mg/dL
same,Cl,"[…], time 28 day",105.2 meq/L
same,DBIL,"[…], time 28 day",0.006 mg/dL
same,GLC,"[…], time 28 day",184.4 mg/dL
same,IP,"[…], time 28 day",6.5 mg/dL
same,K,"[…], time 28 day",3.8 meq/L
same,LDH,"[…], time 28 day",56.2 IU/L
same,Na,"[…], time 28 day",142 meq/L
same,PL,"[…], time 28 day",125.4 mg/dL
same,RALB,"[…], time 28 day",2.7 g/dL
same,TBIL,"[…], time 28 day",0.062 mg/dL
same,TC,"[…], time 28 day",63.2 mg/dL
same,TG,"[…], time 28 day",84.4 mg/dL
same,TP,"[…], time 28 day",6.1 g/dL
same,gamma-GTP,"[…], time 28 day",1 IU/L
